According to paper PMC7909954 (eLife, 2021):
Where two headings read alike, the source gives them in different places.

How the values were obtained:
mMOR [1] = target: T1, mMOR (Mus musculus, UniProt P42866); assay: biochemical
mMOR [2] = target: T1, mMOR; assay: biochemical; remark: listed apart in the source
KOR [3] = target: T2, KOR (Homo sapiens, UniProt P41145); assay: cell-based
rKOR [4] = target: T3, rKOR (Rattus norvegicus, UniProt P34975); assay: cell-based; details: HEK-293T, read-out: Emax% arrestin recruitment (BRET) rKOR
mMOR [5] = target: T1, mMOR; assay: cell-based
MOR [6] = target: T4, MOR (Homo sapiens, UniProt P35372); assay: cell-based
DOR [7] = target: T5, DOR (Homo sapiens, UniProt P41143); assay: cell-based
mDOR [8] = target: T6, mDOR (Mus musculus, UniProt P32300); assay: cell-based
rKOR [9] = target: T3, rKOR
mMOR [10] = target: T1, mMOR; format: cell-based; parameters: expressed in transfected cells; host or cells: HEK-293T
mMOR [11] = target: T1, mMOR; assay: cell-based; parameters: expressed in transfected cells; host or cells: HEK-293T
rKOR [12] = target: T3, rKOR; assay: cell-based; details: HEK-293T, read-out: Emax% G protein activation (BRET) rKOR
mKOR [13] = target: T7, mKOR (Mus musculus, UniProt P33534); assay: biochemical
mDOR [14] = target: T6, mDOR; assay: biochemical; details: read-out: Emax mDOR [35S]GTPγS
DOR [15] = target: T5, DOR; assay: cell-based; remark: listed apart in the source
mDOR [16] = target: T6, mDOR; assay: cell-based; remark: listed apart in the source
mKOR [17] = target: T7, mKOR; assay: biochemical; remark: listed apart in the source
MOR [18] = target: T4, MOR
KOR [19] = target: T2, KOR; assay: cell-based; details: EC50 cAMP inhibition hKOR
MOR [20] = target: T4, MOR; assay: cell-based; remark: listed apart in the source
KOR [21] = target: T2, KOR
[22] = transduction coefficient log(T/KA)

T2 sequence (P41145 whole entry): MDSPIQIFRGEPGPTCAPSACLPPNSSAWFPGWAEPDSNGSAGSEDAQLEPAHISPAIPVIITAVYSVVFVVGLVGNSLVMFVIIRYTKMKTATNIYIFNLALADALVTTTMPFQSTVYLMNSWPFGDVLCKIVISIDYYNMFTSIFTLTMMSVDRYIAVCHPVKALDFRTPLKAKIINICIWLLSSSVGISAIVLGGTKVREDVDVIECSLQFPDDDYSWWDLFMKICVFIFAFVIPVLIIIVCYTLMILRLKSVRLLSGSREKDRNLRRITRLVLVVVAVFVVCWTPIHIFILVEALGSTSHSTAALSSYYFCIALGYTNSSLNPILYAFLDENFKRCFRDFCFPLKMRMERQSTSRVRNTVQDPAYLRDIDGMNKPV
T5 sequence (P41143 whole entry): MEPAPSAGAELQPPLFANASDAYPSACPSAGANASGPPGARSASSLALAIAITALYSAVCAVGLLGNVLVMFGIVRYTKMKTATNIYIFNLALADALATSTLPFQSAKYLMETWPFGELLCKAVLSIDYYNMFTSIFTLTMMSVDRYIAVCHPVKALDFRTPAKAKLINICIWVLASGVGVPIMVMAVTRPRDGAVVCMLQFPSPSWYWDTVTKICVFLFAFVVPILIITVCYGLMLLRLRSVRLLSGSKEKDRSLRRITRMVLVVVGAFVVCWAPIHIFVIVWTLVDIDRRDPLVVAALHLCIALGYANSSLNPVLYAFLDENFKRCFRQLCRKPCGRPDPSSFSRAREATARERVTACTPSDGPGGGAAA
T1 sequence (P42866 whole entry): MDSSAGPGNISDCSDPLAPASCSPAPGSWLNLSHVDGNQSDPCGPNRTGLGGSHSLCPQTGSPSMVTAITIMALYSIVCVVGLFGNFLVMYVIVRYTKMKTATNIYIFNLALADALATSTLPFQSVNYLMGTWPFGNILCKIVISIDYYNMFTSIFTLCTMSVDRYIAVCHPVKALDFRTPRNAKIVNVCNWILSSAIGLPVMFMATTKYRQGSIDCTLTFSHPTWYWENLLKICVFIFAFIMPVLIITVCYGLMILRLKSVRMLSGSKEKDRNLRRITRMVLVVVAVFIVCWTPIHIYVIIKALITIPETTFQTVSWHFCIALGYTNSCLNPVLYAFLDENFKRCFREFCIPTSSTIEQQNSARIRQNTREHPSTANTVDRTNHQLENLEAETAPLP
T6 sequence (P32300 whole entry): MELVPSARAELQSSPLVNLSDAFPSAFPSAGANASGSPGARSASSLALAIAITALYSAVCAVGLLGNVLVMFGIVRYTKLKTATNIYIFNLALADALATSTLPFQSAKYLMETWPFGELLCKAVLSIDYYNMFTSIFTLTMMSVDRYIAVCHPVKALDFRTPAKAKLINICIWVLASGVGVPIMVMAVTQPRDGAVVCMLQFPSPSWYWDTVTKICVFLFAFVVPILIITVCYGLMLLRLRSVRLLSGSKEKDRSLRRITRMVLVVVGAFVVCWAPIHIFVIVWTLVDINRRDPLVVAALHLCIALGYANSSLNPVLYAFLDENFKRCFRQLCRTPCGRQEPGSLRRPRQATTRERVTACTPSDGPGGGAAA
T7 sequence (P33534 whole entry): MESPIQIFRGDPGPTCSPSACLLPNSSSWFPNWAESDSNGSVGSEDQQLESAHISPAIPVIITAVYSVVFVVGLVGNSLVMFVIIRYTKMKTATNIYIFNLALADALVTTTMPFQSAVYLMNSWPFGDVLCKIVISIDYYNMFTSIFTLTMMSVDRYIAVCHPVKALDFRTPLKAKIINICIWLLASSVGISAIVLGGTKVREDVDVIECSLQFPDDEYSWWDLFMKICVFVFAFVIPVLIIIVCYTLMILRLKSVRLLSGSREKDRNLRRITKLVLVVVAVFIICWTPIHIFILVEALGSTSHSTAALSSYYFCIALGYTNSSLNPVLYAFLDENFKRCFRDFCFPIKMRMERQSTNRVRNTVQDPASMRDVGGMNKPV
T3 sequence (P34975 whole entry): as the sequence (P33534 whole entry) above, with D11E, S17A, S51P, A308V counted along it
T4 sequence (P35372 whole entry): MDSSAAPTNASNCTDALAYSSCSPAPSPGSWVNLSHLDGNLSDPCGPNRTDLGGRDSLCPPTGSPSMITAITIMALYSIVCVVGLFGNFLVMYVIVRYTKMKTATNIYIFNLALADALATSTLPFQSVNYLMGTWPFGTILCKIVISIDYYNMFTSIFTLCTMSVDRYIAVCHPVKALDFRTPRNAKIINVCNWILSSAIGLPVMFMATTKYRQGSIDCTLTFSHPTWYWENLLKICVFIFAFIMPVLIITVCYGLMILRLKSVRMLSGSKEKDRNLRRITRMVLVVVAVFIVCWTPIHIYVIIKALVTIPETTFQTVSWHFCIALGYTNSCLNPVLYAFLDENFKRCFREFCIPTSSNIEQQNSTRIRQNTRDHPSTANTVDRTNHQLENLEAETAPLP

**Q.** O=C(NC1C=CC2C3Cc4ccc(O)c5c4C2(CCN3CC2CC2)C1O5)c1cccc(I)c1 (stereo not shown) [MP1104] was tested. Which Ki (mMOR [1]) did it give?
**A.** 0.021 nM

**Q.** What about the EC50 (mMOR [2]; EC50 mMOR [35S]GTPγS, ± SEM) of the same molecule?
**A.** 0.21 ± 0.03 nM

**Q.** And the Emax (mMOR [2]; read-out: Emax mMOR [35S]GTPγS)?
**A.** 103 ± 2%

**Q.** And the EC50 (KOR [3]; EC50 arrestin recruitment (Tango) hKOR)?
**A.** 0.0394 nM

**Q.** What about the Emax (KOR [3]; HTLA, read-out: Emax% arrestin recruitment (Tango) hKOR) of the same molecule?
**A.** 117 ± 2%

**Q.** And the Emax (rKOR [4])?
**A.** 89 ± 2.6%

**Q.** And the EC50 (mMOR [5]; EC50 G protein activation (BRET) mMOR)?
**A.** 0.66 nM

**Q.** What about the Emax (mMOR [5]; HEK-293T, read-out: Emax% G protein activation (BRET) mMOR) of the same molecule?
**A.** 62 ± 2%

**Q.** And the EC50 (MOR [6]; EC50 cAMP inhibition hMOR)?
**A.** 0.074 nM

**Q.** And the Emax (MOR [6]; HEK-293T, read-out: Emax% cAMP inhibition hMOR)?
**A.** 94 ± 1%

**Q.** What about the EC50 (DOR [7]; EC50 cAMP inhibition hDOR) of the same molecule?
**A.** 0.4 nM

**Q.** What about the Emax (DOR [7]; HEK-293T, read-out: Emax% cAMP inhibition hDOR) of the same molecule?
**A.** 99 ± 1.1%

**Q.** And the EC50 (mDOR [8]; EC50 G protein activation (BRET) mDOR)?
**A.** 1.4 nM

**Q.** What about the Emax (mDOR [8]; HEK-293T, read-out: Emax% G protein activation (BRET) mDOR) of the same molecule?
**A.** 91 ± 1.7%

**Q.** And the “Log RA BRET-G rKOR” value (rKOR [9])?
**A.** 10.07±0.047

**Q.** And the “LogRA BRET-Arr rKOR” value (rKOR [9])?
**A.** 8.84±0.033

**Q.** And the “ΔΔlog RA (BRETG-BRETArr) rKOR” value (rKOR [9])?
**A.** -0.64±0.079

**Q.** What about the “Bias factor (BRETG-BRETArr) rKOR” value (rKOR [9]; vs U50,488h) of the same molecule?
**A.** 0.23

**Q.** And the “ΔlogRA BRET-G rKOR” value (rKOR [9]; vs U50,488h)?
**A.** 1.067±0.064

**Q.** What about the “ΔlogRA BRET-arr rKOR” value (rKOR [9]; vs U50,488h) of the same molecule?
**A.** 1.702±0.047

**Q.** And the “Bias factor (BRETG-BRETArr) mMOR” value (mMOR [10])?
**A.** 0.11

**Q.** What about the “Log RA BRET-G mMOR” value (mMOR [10]) of the same molecule?
**A.** 8.917±0.12

**Q.** And the “LogRA BRET-Arr mMOR” value (mMOR [10])?
**A.** 9.196±0.06

**Q.** And the “ΔlogRA BRET-G mMOR” value (mMOR [10])?
**A.** 0.357±0.173

**Q.** What about the “ΔlogRA BRET-arr mMOR” value (mMOR [10]) of the same molecule?
**A.** 1.323±0.09

**Q.** And the “ΔΔlog RA (BRETG-BRETArr) mMOR” value (mMOR [10])?
**A.** -0.966±0.195

**Q.** And the EC50 (mMOR [11])?
**A.** 0.285 nM

**Q.** And the Emax (mMOR [11]; HEK-293T, read-out: Emax% arrestin recruitment (BRET) mMOR)?
**A.** 53 ± 1.6%

**Q.** And the Emax (rKOR [12])?
**A.** 93 ± 1%

**Q.** What about the EC50 (mKOR [13]; EC50 mKOR [35S]GTPγS, ± SEM) of the same molecule?
**A.** 0.027 ± 0.002 nM

**Q.** And the Emax (mKOR [13]; read-out: Emax mKOR [35S]GTPγS)?
**A.** 104 ± 2%

**Q.** What about the Emax (mDOR [14]) of the same molecule?
**A.** 88%

**Q.** What about the EC50 (DOR [15]; EC50 arrestin recruitment hDOR, Tango) of the same molecule?
**A.** 3.73 nM

**Q.** And the Emax (DOR [15]; HTLA, read-out: Emax% arrestin recruitment hDOR)?
**A.** 189 ± 5.5%

**Q.** And the EC50 (mDOR [16]; EC50 arrestin recruitment (BRET) mDOR)?
**A.** 26 nM

**Q.** And the Emax (mDOR [16]; HEK-293T, read-out: Emax% arrestin recruitment (BRET) mDOR)?
**A.** 40 ± 1.7%

**Q.** And the Ki (mKOR [17])?
**A.** 0.0064 nM

**Q.** What about the “Bias factor (cAMP-Tango) hMOR” value (MOR [18]) of the same molecule?
**A.** 0.58

**Q.** What about the “Log RA cAMP hMOR” value (MOR [18]) of the same molecule?
**A.** 10.12±0.009

**Q.** What about the “LogRA Tango hMOR” value (MOR [18]) of the same molecule?
**A.** 9.18±0.013

**Q.** What about the “ΔlogRA Tango hMOR” value (MOR [18]) of the same molecule?
**A.** 1.26±0.019

**Q.** What about the “ΔlogRA cAMP hMOR” value (MOR [18]) of the same molecule?
**A.** 1.018±0.012

**Q.** And the “ΔΔlog RA (cAMP-Tango) hMOR” value (MOR [18])?
**A.** -0.24±0.022

**Q.** What about the EC50 (KOR [19]) of the same molecule?
**A.** 0.00327 nM

**Q.** And the EC50 (MOR [20])?
**A.** 0.573 nM

**Q.** And the Emax (MOR [20]; HTLA, read-out: Emax% arrestin recruitment (Tango) hMOR)?
**A.** 90 ± 2.28%

**Q.** And the “ΔΔlog RA (cAMP-Tango) hKOR” value (KOR [21])?
**A.** -0.81±0.055

**Q.** And the “Bias factor (cAMP-Tango) hKOR” value (KOR [21]; >1 G protein bias, <1 arrestin bias, vs U50,488h)?
**A.** 0.15

**Q.** And the “Log RA cAMP hKOR” value (KOR [21]; [22])?
**A.** 11.44±0.034

**Q.** And the “LogRA Tango hKOR” value (KOR [21]; [22])?
**A.** 10.45±0.019

**Q.** What about the “ΔlogRA Tango hKOR” value (KOR [21]; vs U50,488h) of the same molecule?
**A.** 2.16±0.027

**Q.** What about the “ΔlogRA cAMP hKOR” value (KOR [21]; vs U50,488h) of the same molecule?
**A.** 1.35±0.048
